This assay can be described thus: In vitro measurement of antiperspirant effect (SOD4 device, Smart-Pore microchannels). Conditions: 80% hygrometry, 2 mg/cm^2 dose. The procedure: In vitro measurement of antiperspirant activity was measured with an SOD4 device from Microfactory, France. The SOD4 device is an automated biomimetic system that imitates the sweating process. The device comprises (1) Smart-Pore™: a silicone microfluidic chip containing microchannels which mimic skin pores (number of pores per chip: 4; dimensions of the pores: 60 μm×60 μm×2 mm; material: polydimethylsiloxane); (2) a pressure system controlling the flow of sweat in the pores down to nanoliter volumes; (3) a climate chamber regulated in humidity/temperature to reproduce perspiration conditions; (4) an optical system to monitor and record the interaction between the antiperspirant and artificial sweat.
Known antiperspirants block sweat pores thereby reducing sweating of a subject. The blocking is caused by a precipitate or clot in the sweat pore which is formed by interaction of the antiperspirant with components of sweat. The SOD4 device mimics this process and allows for analyzing the interaction of an antiperspirant sample and artificial sweat in the microfluidic channel. The analysis includes, e.g. detection of precipitate/clot formation, measuring precipitate/clot formation time, and measuring pressure (bursting pressure) which is necessary for removing the precipitate/clot from the microchannel. […]

As for Aluminium chlorohydrate [Sample 4], the “Burst pressure (mbar)*” value (average of the maximal pressure applied before unclogging of precipitate/clot from the microchannel, after one hour interaction with artificial sweat at 25° C.) is 699 +/− 34 mbar. In addition, under “average over all observed clots, artificial sweat, 25° C.”, the “Clot formation time” value came out at 2047 s.

The record behind these values is patent publication US20250228761A1, “COMPOSITION COMPRISING A SURFACE-REACTED CALCIUM CARBONATE AND A TANNIN” (Omya International AG, priority 2021, published 2025).
